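Following 48 hours of exposure in 96-well plates, responses at five concentrations were used to interpolate endpoints linearly. Abbreviation: GI50, concentration required for 50% inhibition of growth.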 The source made the active and inactive calls. No stated cut-off is given here; in the data, active = GI50 up to about 1.1 µM and inactive = higher.
What was measured:
Experiment in all cases: DTP human tumour cell line panel, 48 h
SW-620 = test system: SW-620
SNB-19 = test system: SNB-19
IGROV-1 = test system: IGROV-1
EKVX = test system: EKVX
M14 = test system: M14
MOLT-4 = test system: MOLT-4
OVCAR-4 = test system: OVCAR-4
SK-MEL-5 = test system: SK-MEL-5
LOX IMVI = test system: LOX IMVI
A498 = test system: A498
HT-29 = test system: HT-29
SK-OV-3 = test system: SK-OV-3
OVCAR-5 = test system: OVCAR-5
SNB-75 = test system: SNB-75
UO-31 = test system: UO-31
CAKI-1 = test system: CAKI-1
Malme-3M = test system: Malme-3M
MDA-MB-435 = test system: MDA-MB-435
BT-549 = test system: BT-549
MDA-MB-231 = test system: MDA-MB-231

| SMILES | GI50 (SW-620) | GI50 (SNB-19) | GI50 (IGROV-1) | GI50 (EKVX) | GI50 (M14) | GI50 (MOLT-4) | GI50 (OVCAR-4) | GI50 (SK-MEL-5) | GI50 (LOX IMVI) | GI50 (A498) | GI50 (HT-29) | GI50 (SK-OV-3) | GI50 (OVCAR-5) | GI50 (SNB-75) | GI50 (UO-31) | GI50 (CAKI-1) | GI50 (Malme-3M) | GI50 (MDA-MB-435) | GI50 (BT-549) | GI50 (MDA-MB-231) |
| --- | --- | --- | --- | --- | --- | --- | --- | --- | --- | --- | --- | --- | --- | --- | --- | --- | --- | --- | --- | --- |
| COC(=O)C(NC(=O)c1ccccc1)C(c1ccc(Cl)cc1)P(=O)(OC)OC (stereo not given) | > 100 µM (inactive) | > 100 µM (inactive) | > 100 µM (inactive) | > 100 µM (inactive) | > 100 µM (inactive) | > 100 µM (inactive) | > 100 µM (inactive) | > 100 µM (inactive) | > 100 µM (inactive) | > 100 µM (inactive) | > 100 µM (inactive) | > 100 µM (inactive) | > 100 µM (inactive) | > 100 µM (inactive) | > 100 µM (inactive) | > 100 µM (inactive) | – | – | – | – |
| Cc1ccc2nc3c(C(=O)NCCN(C)C)cccc3cc2c1 | 1.39 µM (inactive) | 2.04 µM (inactive) | 2.23 µM (inactive) | 0.802 µM (active) | – | 0.49 µM (active) | 3.03 µM (inactive) | 1.76 µM (inactive) | 1.71 µM (inactive) | 1.56 µM (inactive) | 1.14 µM (inactive) | 2.39 µM (inactive) | 2.1 µM (inactive) | 2.99 µM (inactive) | 1.4 µM (inactive) | – | 1.77 µM (inactive) | – | – | – |
| CC(=O)O[C@H]1CC[C@H]2[C@@H]3CC[C@H]4Nc5c(cnn5S(C)(=O)=O)C[C@]4(C)[C@H]3CC[C@]12C | – | 36.7 µM (inactive) | > 100 µM (inactive) | – | 91.4 µM (inactive) | 47.9 µM (inactive) | 18.5 µM (inactive) | 84.3 µM (inactive) | – | > 100 µM (inactive) | 48.5 µM (inactive) | 77.6 µM (inactive) | > 100 µM (inactive) | 37.2 µM (inactive) | 88.1 µM (inactive) | 38.1 µM (inactive) | 38.7 µM (inactive) | > 100 µM (inactive) | 27.5 µM (inactive) | > 100 µM (inactive) |
| COC(=O)C(Cc1cn(C(C)=O)c2ccccc12)P(=O)(OC)OC (stereo not given) | > 100 µM (inactive) | > 100 µM (inactive) | > 100 µM (inactive) | – | > 100 µM (inactive) | – | > 100 µM (inactive) | > 100 µM (inactive) | – | > 100 µM (inactive) | > 100 µM (inactive) | – | 95.3 µM (inactive) | 60.3 µM (inactive) | 72.9 µM (inactive) | > 100 µM (inactive) | – | > 100 µM (inactive) | > 100 µM (inactive) | > 100 µM (inactive) |
| COc1cc2c(cc1OC)C(=O)/C(=C/c1cc(OC)c(OC)c(OC)c1)C2 | – | > 100 µM (inactive) | > 100 µM (inactive) | – | 96.6 µM (inactive) | > 100 µM (inactive) | > 100 µM (inactive) | > 100 µM (inactive) | – | > 100 µM (inactive) | > 100 µM (inactive) | > 100 µM (inactive) | > 100 µM (inactive) | > 100 µM (inactive) | > 100 µM (inactive) | > 100 µM (inactive) | > 100 µM (inactive) | > 100 µM (inactive) | 36.9 µM (inactive) | 66.7 µM (inactive) |
| O=C1CN2C(Cl)(Cl)C2(c2ccccc2)c2cc(Cl)ccc2N1CC(F)(F)F (stereo not given) | 39.4 µM (inactive) | – | 26.8 µM (inactive) | 32.2 µM (inactive) | 24 µM (inactive) | 19.1 µM (inactive) | 18.5 µM (inactive) | 17.9 µM (inactive) | 17.5 µM (inactive) | – | 18.4 µM (inactive) | 51.2 µM (inactive) | 56.1 µM (inactive) | 13 µM (inactive) | 36.3 µM (inactive) | 49.3 µM (inactive) | 22.7 µM (inactive) | – | – | – |

Source: ChEMBL document CHEMBL1201862, “PubChem BioAssay data set” (2004)
